Earlier results in US7125886B2, “5-HT3 receptor antagonists and methods of use” (Aryx Therapeutics, priority 2002, dated 2006).

Columns and labels:
5-HT3 receptor = molecular target: T1, 5-HT3 receptor (Homo sapiens, UniProt P46098)
T1 sequence (P46098 24-478): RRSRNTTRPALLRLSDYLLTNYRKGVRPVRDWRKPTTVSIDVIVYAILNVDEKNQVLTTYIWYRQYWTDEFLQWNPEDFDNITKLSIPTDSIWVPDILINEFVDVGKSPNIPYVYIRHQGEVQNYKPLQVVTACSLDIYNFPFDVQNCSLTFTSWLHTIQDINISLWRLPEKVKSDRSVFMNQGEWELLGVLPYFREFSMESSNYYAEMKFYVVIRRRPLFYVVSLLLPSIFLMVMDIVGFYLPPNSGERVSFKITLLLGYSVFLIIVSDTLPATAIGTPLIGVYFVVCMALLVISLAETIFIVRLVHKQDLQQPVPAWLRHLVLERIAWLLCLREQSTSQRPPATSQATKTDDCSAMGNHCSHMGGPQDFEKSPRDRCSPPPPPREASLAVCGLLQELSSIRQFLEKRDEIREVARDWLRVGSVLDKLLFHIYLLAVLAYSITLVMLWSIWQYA

[1] = up to 3 months of treatment; versus placebo and mebeverine
[2] = at least 12 weeks of treatment, patients with IBS
[3] = received by the FDA

## Cc1[nH]cnc1CN1CCc2c(c3cccc(O[C@@H]4O[C@H](C(=O)O)[C@@H](O)[C@H](O)[C@H]4O)c3n2C)C1=O [6-OH-alosetron glucuronide]
5-HT3 receptor
  5-HT3 receptor binding affinity: potent

## Cc1[nH]cnc1CN1CCc2c(c3ccccc3n2C)C1=O [Alosetron, 2,3,4,5-tetrahydro-5-methyl-2-[(5-methyl-1H-imidazol-4-yl)methyl]-1H-pyrido [4,3-b]indol-1-one]
[1]
  improving perception of visceral pain, spasms and diarrhea: significantly superior
[2]
  constipation, patients with adverse event: 28%
[3]
  reports of deaths associated with alosetron: 3
Females compared with males
  greater drug exposure in females than males: 60%
  mean peak plasma concentration higher in females: 45–100%
In vivo
  half-life: 1.5 h
oral
  oral bioavailability: approximately 60%

## Cc1[nH]cnc1CN1CCc2c(c3cccc(O)c3n2C)C1=O [6-Hydroxy-alosetron]
5-HT3 receptor
  potency relative to alosetron: twice as potent as alosetron
